In ChEMBL document CHEMBL4837187, “Antimicrobial Benzyltetrahydroisoquinoline-Derived Alkaloids from the Leaves of Doryphora aromatica” (2021) one finds MIC and inhibition of growth data, which are given here for five compounds.

Format in all cases: functional
Test [1] has as its system Mycolicibacterium smegmatis. Nature of the test: Antimicrobial activity against Mycobacterium smegmatis MC2 155 ATCC […] assessed as microbial growth inhibition incubated for 16 hrs under aerobic condition by microplate reader assay.
For test [2], the system named is Mycobacterium tuberculosis. As to the kind of experiment: Antimicrobial activity against Mycobacterium tuberculosis MC2 6220 BSL2MIC assessed as microbial growth inhibition incubated for 16 hrs under aerobic condition by microplate reader assay.
The test system of test [3] is Mycobacterium tuberculosis. As to the kind of experiment: Antimicrobial activity against Mycobacterium tuberculosis H37Rv assessed as microbial growth inhibition incubated for 16 hrs under aerobic condition by microplate reader assay.
Another test concerns Escherichia coli. Nature of the test: Antimicrobial activity against Escherichia coli assessed as microbial growth inhibition incubated for 16 hrs under aerobic condition by microplate reader assay.
Test [4] deals with Staphylococcus aureus. Nature of the test: Antimicrobial activity against Staphylococcus aureus assessed as microbial growth inhibition incubated for 16 hrs under aerobic condition by microplate reader assay.
Test [5] has as its system Staphylococcus aureus. Nature of the test: Antimicrobial activity against methicillin-resistant Staphylococcus aureus clinical isolate 1 assessed as microbial growth inhibition incubated for 16 hrs under aerobic condition by microplate reader assay.
Test [6] relates to Staphylococcus aureus. Nature of the test: Antimicrobial activity against methicillin-resistant Staphylococcus aureus clinical isolate 2 assessed as microbial growth inhibition incubated for 16 hrs under aerobic condition by microplate reader assay.
Test [7] has as its system Staphylococcus aureus. Nature of the test: Antimicrobial activity against methicillin-resistant Staphylococcus aureus clinical isolate 3 assessed as microbial growth inhibition incubated for 16 hrs under aerobic condition by microplate reader assay.
For test [8], the system named is Staphylococcus aureus. As to the kind of experiment: Antimicrobial activity against methicillin-resistant Staphylococcus aureus clinical isolate 4 assessed as microbial growth inhibition incubated for 16 hrs under aerobic condition by microplate reader assay.
Test [9] deals with Staphylococcus aureus. Nature of the test: Antimicrobial activity against methicillin-resistant Staphylococcus aureus clinical isolate 5 assessed as microbial growth inhibition incubated for 16 hrs under aerobic condition by microplate reader assay.
Test [10] relates to Mycobacterium tuberculosis. As to the kind of experiment: Antimicrobial activity against Mycobacterium tuberculosis MC2 6220 BSL2 assessed as microbial growth inhibition at 6.25 uM incubated for 16 hrs under aerobic condition by microplate reader assay relative to control. The settings on record: read-out: GI.

For `COc1cc2c(cc1OC)[C@@H](Cc1ccc(Oc3cc(Cc4c5cc(OC)c(OC)cc5cc[n+]4C)ccc3OC)cc1)N(C)CC2`, the MIC in test [1] was 39.4 µM; in test [2], 12.5 µM; in test [3], over 100 µM; in the test on Escherichia coli, 158 µM; with Staphylococcus aureus [4] it was 39.4 µM; with Staphylococcus aureus [5], 39.4 µM. Moreover, the MIC was 39.4 µM with Staphylococcus aureus [6], 19.7 µM in the test on Staphylococcus aureus [7], 39.4 µM in the test with Staphylococcus aureus [8] and 19.7 µM in the test on Staphylococcus aureus [9]. Further, the inhibition of growth at 6.25 µM in test [10] was found to be 70%.

For the compound `COc1cc2cc[n+](C)c(O)c2cc1OC`, the MIC (in [1]; in the test with Escherichia coli; in the test on Staphylococcus aureus [4]) was over 100 µM in each case.

With `COc1cc2cc[n+](C)c(Cc3ccc(Oc4cc(Cc5c6cc(OC)c(OC)cc6cc[n+]5C)ccc4OC)cc3)c2cc1OC`, the minimum inhibitory concentration (MIC) is 158 µM in test [1]; 39.6 µM in the test with Escherichia coli; 9.9 µM in the test with Staphylococcus aureus [4]; 9.9 µM in the test with Staphylococcus aureus [5]; 39.6 µM with Staphylococcus aureus [6]; 39.6 µM in the test on Staphylococcus aureus [7]. In addition, the MIC with Staphylococcus aureus [8] and with Staphylococcus aureus [9] was 9.9 µM in each case.

For the compound `COc1cc2cc[n+](C)c(Cc3ccc(OC)c(Oc4ccc(C=O)cc4)c3)c2cc1OC`, the minimum inhibitory concentration (MIC) (in test [1]; in the test with Escherichia coli; in the test on Staphylococcus aureus [4]) was over 100 µM throughout.

For the compound `COc1cc2cc[n+](C)c(Cc3ccc(Oc4cc(Cc5c6cc(OC)c(OC)cc6cc[n+]5C)ccc4O)cc3)c2cc1OC`, the MIC (in [1]; in the test on Escherichia coli; in the test with Staphylococcus aureus [4]) was over 100 µM throughout.
